“And” between values parts separate entries of the source, which are not always exact repeats. Equal entries are not always repeated. Marks after values point to notes of the source that are not given here.
What was measured:
3T3-L1 adipocytes [1] = test: Analysis of leptin production (ELISA kit); format: cell-based; conditions: 100 μg/mL; differentiated adipocytes 0.50±0.01
Procedure: An adipocyte 3T3-L1 cell line was purchased from the American Type Culture Collection (Rockville, Md., USA), and cultured at 37° C. in a DMEM (Invitrogen, USA) medium supplemented with 10% fetal bovine serum (FBS; Invitrogen, USA) in a 5% CO2 incubator. To avoid contamination, 100 units/mL of penicillin and 100 μg/mL of streptomycin (Gibco/BRL, USA) as antibiotics were added thereto, and the cells were treated with trypsin-EDTA (Gibco/BRL, USA), and sub-cultured. The medium was replaced with a fresh one every two or three days. For treatment with the extract complex, the cultured 3T3-L1 cell line was transferred to a 24-well plate (Corning, USA) at a density of 1×10^5 cells/well. After the medium was replaced with a FBS-free medium the next evening, the 3T3-L1 cell line was treated for 16 hours. Leptin is a hormone that is produced by an obesity gene in adipocytes. Thus, a blood leptin concentration has been widely used for obesity research as an indicator of body fat mass because a secretion rate of leptin increases with an increase in fat accumulated in the adipocytes. […] 3T3-L1 adipocytes were treated with each of the 30% ethanol extract complex of bamboo leaves plus quince and the hot-water extract complex of bamboo leaves plus quince at concentrations of 50 and 100 μg/mL, and a concentration of leptin was then measured using an ELISA kit.

3T3-L1 adipocytes [2] = test: Analysis of glycerol release; format: cell-based; conditions: 100 μg/mL; differentiated adipocytes 18.10±2.28
Procedure: (§1) An adipocyte 3T3-L1 cell line was purchased from the American Type Culture Collection (Rockville, Md., USA), and cultured at 37° C. in a DMEM (Invitrogen, USA) medium supplemented with 10% fetal bovine serum (FBS; Invitrogen, USA) in a 5% CO2 incubator. To avoid contamination, 100 units/mL of penicillin and 100 μg/mL of streptomycin (Gibco/BRL, USA) as antibiotics were added thereto, and the cells were treated with trypsin-EDTA (Gibco/BRL, USA), and sub-cultured. The medium was replaced with a fresh one every two or three days. For treatment with the extract complex, the cultured 3T3-L1 cell line was transferred to a 24-well plate (Corning, USA) at a density of 1×10^5 cells/well. After the medium was replaced with a FBS-free medium the next evening, the 3T3-L1 cell line was treated for 16 hours. 3T3-L1 adipocytes were treated with each of the 30% ethanol extract complex of bamboo leaves plus quince and the hot-water extract complex of bamboo leaves plus quince at concentrations of 50 and 100 μg/mL to measure an amount of glycerol production. An amount of glycerol production in undifferentiated pre-adipocytes was 2.46±1.34 μg/mL, an amount of glycerol production in differentiated adipocytes was 18.10±2.28 μg/mL, and an amount of glycerol production in the positive control was 32.09±1.23 μg/mL when HCA was present at a concentration of 100 μg/m L.

3T3-L1 adipocytes [3] = test: Analysis of triglyceride content; format: cell-based; conditions: 100 μg/mL; differentiated adipocytes 126.2±1.25
Procedure: as §1, with “measure” for “measure an amount of glycerol production. An amount of glycerol production in undifferentiated pre-adipocytes was 2.46±1.34 μg/mL, an amount of glycerol production in differentiated adipocytes was 18.10±2.28 μg/mL, and an amount of glycerol production in the positive control was 32.09±1.23 μg/mL when HCA was present at”, “triglycerides.” for “100 μg/m L.”

C57BL/6J mice [4] = test: Body weight gain, food intake and food efficiency ratio, 8-week oral administration; format: in vivo; conditions: HD (high-fat diet), HCA 300 mg/kg BW/day oral, 8 weeks
Text: (§2) Four-week-old male C57BL/6J mice were purchased from Central Lab-Animal Inc. (Seoul, Korea), adapted for a week to a normal diet in which fats accounted for 10% of the total calories, and then used for experiments. To induce obesity, a high fat diet in which fats accounted for 60% of the total calories was supplied to all groups other than a normal diet (ND) group and an ND sample group, and a normal diet in which fats accounted for 10% of the total calories was freely supplied to the ND group and the ND sample group for a total of 8 weeks. The experimental groups were divided into a total of 6 groups: a ND group, a high fat diet (HD) group, a positive control (HCA), a sample group (ND+JMW) in which a hot-water extract complex of bamboo leaves plus quince was administered to the ND group, and sample-efficacy groups (HD+JMW200 and HD+JMW400) in which a two-fold concentration of the hot-water extract complex of bamboo leaves plus quince was administered to the high fat diet group. In this case, ten mice were assigned to each group using a randomized block design, and used for experiments. To check an anti-obesity effect of the sample extract for 8 weeks (week 1 to 8) after a one-week adaptation, the test material was dissolved in distilled water, and orally administered to the positive control, the ND sample group, and the HD sample-efficacy groups once a day at a concentration of 300 mg/kg BW/day, 400 mg/kg BW/day, 200 mg/kg BW/day, and 400 mg/kg BW/day, respectively. Also, distilled water was administered to the ND group and the HD group. After laboratory animals were adapted for a week, the hot-water extract complex of bamboo leaves plus quince was orally administered to the C57BL/6J mice for 8 weeks to observe a change in body weight.

C57BL/6J mice [5] = test: Weight of adipose tissues (EAT, BAT); format: in vivo; conditions: HD (high-fat diet), HCA 300 mg/kg BW/day oral, 8 weeks
Text: as §2, with “[…] The weights” for “To check an anti-obesity effect”, “adipose tissues in” for “sample extract for 8 weeks (week 1 to 8) after a one-week adaptation,”, “the” for “the test material was dissolved in distilled water, and orally administered to the positive control, the ND sample group, and the HD sample-efficacy groups once a day at a concentration of 300 mg/kg BW/day, 400 mg/kg BW/day, 200 mg/kg BW/day, and 400 mg/kg BW/day, respectively. Also, distilled water was administered to the ND group and the HD group. After”, “treated with” for “were adapted for a week,”, “were measured.” for “was orally administered to the C57BL/6J mice for 8 weeks to observe a change in body weight.”

C57BL/6J mice [6] = test: Analysis of blood lipids; format: in vivo; conditions: HD (high-fat diet), HCA 300 mg/kg BW/day oral, 8 weeks
Text: as §2, with “An amount of blood lipids (triglycerides and cholesterol) was measured in the” for “After”, “treated with” for “were adapted for a week,”, “quince.” for “quince was orally administered to the C57BL/6J mice for 8 weeks to observe a change in body weight.”

What does the source list for `O=C(O)CC(O)(C(=O)O)C(O)C(=O)O` (stereo not shown) [HCA, hydroxycitric acid]?
amount of leptin production (3T3-L1 adipocytes [1]): 0.39 ± 0.01 ng/mL; amount of glycerol production (3T3-L1 adipocytes [2]): 32.09 ± 1.23 µg/mL; triglyceride content (3T3-L1 adipocytes [3]): 98.01±1.24 μg/mg protein; Final body weight (C57BL/6J mice [4]): 33.50 ± 3.58^b g; Food intake (C57BL/6J mice [4]): 3.79 g/day and 3.79 ± 0.05^c g/day; Weight gain (C57BL/6J mice [4]): 12.83 g/8 weeks and 12.83 ± 0.94^b g/8 weeks; BAT (brown adipose tissue) weight (C57BL/6J mice [5]): 0.09 ± 0.02^b g; EAT (epididymal adipose tissue) weight (C57BL/6J mice [5]): 1.70 g and 1.70 ± 0.14^b g; HDL-cholesterol (C57BL/6J mice [6]): 75.66 mg/dL and 75.66 ± 8.11^b mg/dL; LDL-cholesterol (C57BL/6J mice [6]): 131.06 ± 6.82^b mg/dL; Total cholesterol (blood) (C57BL/6J mice [6]): 241.53 mg/dL and 241.53 ± 8.87^b mg/dL; Triglyceride (blood) (C57BL/6J mice [6]): 174.08 mg/dL and 174.08 ± 3.49^b mg/dL; LDL-cholesterol (C57BL/6J mice [6]; listed as positive control): 131.06 mg/dL

From patent publication US20180193401A1, “ANTI-OBESITY COMPOSITION COMPRISING NATURAL COMPLEX” (MEGABIOWOOD CO., LTD., priority 2017, published 2018)
